Results on 4 compounds are retold here after PMC11232401, “Characterization of antimalarial activity of artemisinin-based hybrid drugs” (Antimicrobial Agents and Chemotherapy, 2024).

Data set [1] relates to NF54 strain of P. falciparum. Briefly: Ring-stage-specific drug activity (pLDH). The format is cell-based. To be noted: Plasmodium falciparum, median ± SEM. As to the method: Each compound was dissolved in dimethyl sulfoxide (DMSO) and diluted in RPMI-1640 medium into seven different concentrations, which were tested against CQ-susceptible strains (NF54 or D10) or a CQ-resistant strain (W2). Each well of 96-well plates was filled with 100 µL drug and 100 µL parasitized RBC (asynchronous parasite culture), which were mixed to obtain a final parasitemia of 1.0% to 1.5% and 1.0% hematocrit. Plates were incubated for 72 h at 37°C in a standard gas mixture; then, parasite growth was determined by measuring the activity of the parasite lactate dehydrogenase (pLDH) ([38]). Briefly, at the end of incubation, the cultures were carefully resuspended, and 20 µL aliquots were removed and added to 100 µL Malstat reagent in a 96-well microplate. The Malstat reagent is made of 0.125% TritonX-100, 130 mM L-lactate, 30 mM Tris buffer, and 0.62 µM 3-acetylpyridine adenine dinucleotide. After that, 20 µL 1.9 µM nitro blue tetrazolium (NBT) and 0.24 µM phenazine ethyl sulfate were added to the plate. NBT was reduced to blueformazan and spectrophotometrically read at OD 650 nm using a Synergy 4 microplate reader (BioTek, Santa Clara, USA). […] IC50 values were expressed as means of two to three independent experiments, with each drug concentration in duplicate.
The NF54 strain of P. falciparum was employed to test the drugs’ activity against ring stages and asynchronous parasite culture (all stages). The ring stages were obtained by synchronization with D-Sorbitol using a standard method ([39]). Each well of 96-well plates was filled with 100 µL each drug and 100 µL culture containing ring-stage or asynchronous parasites, which were mixed to obtain a final parasitemia of 1.0% to 1.5% and 1.0% hematocrit. […] Plates were processed using the pLDH method, and IC50 values were calculated as described above. At least two to three independent experiments were performed, using two technical replicates.
^[a] Synchronized ring-stage parasites were incubated in the presence of compounds for 6 h, drugs were removed by washing, and plates were incubated for an additional 66 h. ^[b] Asynchronous parasites were incubated in the presence of compounds for 6 h, drugs were removed by washing, and plates were incubated for an additional 66 h. ^[c] Asynchronous parasites were incubated in the presence of compounds for 72 h. ^[a,b^] Experiments were performed in parallel. ^[d] […] Parasite viability was determined by parasite lactate dehydrogenase. Data are from three experiments performed in duplicate. MFQ = mefloquine; DHA = dihydroartemisinin; SEM = standard error of the mean.

The subject of data set [2] is Ring stages of NF54 strain P. falciparum. Briefly: Antiplasmodial activity of drug combinations (pLDH, isobologram/FIC). The format is cell-based. To be noted: Plasmodium falciparum, mean (95% CI), tested in parallel with the combination of the same line. The protocol: The activity of the drug combinations against the P. falciparum NF54 strain was determined as described above. In each experiment, drugs were tested alone and in combination. Twofold serial dilutions of the drug solutions were made using fixed molar ratios of 1:1, 1:3, and 3:1 for each combination and using two technical replicates (ranging from 200 to 1.0 nM). Parasite growth was determined by the pLDH method, as described above. IC50 values for each drug alone or in combination were determined, and an isobologram analysis was performed by plotting the fractional inhibitory concentrations (FIC) for each combination and its component drugs separately. Individual FIC values were calculated as the IC50 of the drug combination divided by the IC50 of the drug in isolation. A dashed line was plotted to indicate any additive effect and distinguish antagonism (above the dashed line) from synergism (below the dashed line). Three independent experiments were performed, each one containing two replicates. Each experiment was used to represent an isobologram analysis [mean and 95% confidence interval (CI)].
Values represent one experiment; each concentration of drug combination was tested in technical duplicate. Black dashed line indicates ΣFIC = 1 (absolute additivity). […] FIC index <1 is synergistic, ~1 is additive, and >1 is antagonistic. Nondetrimental interactions are 0.25 <ΣFIC <1.25.
^[a] Values are the mean and 95% confidence interval of one experiment for each concentration of compounds in duplicate.

In data set [3] the test system is ring stages of NF54 strain of P. falciparum. Briefly: Exposure time dependence in drug activity (pLDH). The data set is classed as cell-based. To be noted: Plasmodium falciparum. The protocol: Each well of 96-well plates was filled with 100 µL drug and 100 µL culture containing ring-stage P. falciparum (NF54 strain) parasites, which were mixed to obtain a final parasitemia of 1.0% to 1.5% and 1.0% hematocrit. Plates were incubated at 37°C in a standard gas mixture. After 3 h and 6 h, plates were centrifuged, cell pellets were washed as described above then returned to the incubator for an additional 69 h and 66 h, respectively. In parallel, the same experiment was left without the washing step, enabling continuous drug exposure throughout. Plates were processed using the pLDH method, and IC50 values were calculated as described above. Three independent experiments were performed using two technical replicates.
Figure S2: Exposure time dependence of antiparasitic activity against ring stages of CQ-sensitive strain NF54 of P. falciparum. Data associated to Figure 2B in the main text of the manuscript. Footnotes for table: ^[a] Synchronized ring-stage parasites were incubated in the presence of compounds at indicated times, drugs were removed by washing, and plates were incubated until 72 h.^[b] Parasites were incubated in the presence of compounds for 72 h. ^[a,b^] Experiments were performed in parallel (paired). Parasite viability was determined by parasite lactate dehydrogenase (pLDH) assay. Data are from three experiments performed in duplicate.^ [c] […] MFQ = mefloquine. DHA = dihydroartemisinin; SEM = standard error of the mean; N.S. = not statistically significant.

The conditions of data set [4]: in vivo; cited from earlier work.
The next data set relates to P. berghei-infected mice. The arrangement: method as in PMID 31290221, PMID 34832911, PMID 38559731. Particulars: Peters test; cited from earlier work.
The test system of a further data set is P. falciparum 3D7 strain. Details: method as in PMID 31290221, PMID 34832911, PMID 38559731. To be noted: asynchronous culture, SYBR Green I; read-out: IC50 (nM, median ± SEM) for P. falciparum 3D7 strain; cited from earlier work.
The test system of the next data set is P. falciparum Dd2 strain. Details: method as in PMID 31290221, PMID 34832911, PMID 38559731. Particulars: asynchronous culture, SYBR Green I; read-out: IC50 (nM, median ± SEM) for P. falciparum Dd2 strain; cited from earlier work.
The subject of data set [5] is hematin (iron III)-initiated β-hematin formation. Briefly: β-hematin inhibitory activity under oxidizing condition (O-BHIA). The format is biochemical. Particulars: hematin as starting reagent; mean (95% CI). The protocol: (§1) The compounds were dissolved in DMSO and diluted in DMSO to six different concentrations (1.0–32 mM). Hemin (Fe^III[PPIX]Cl) (BioXtra, Sigma-Aldrich) was first dissolved in 0.1 M NaOH and then suspended in an 80:20 vol/vol mixture of DMSO and propionate buffer (0.1 M, pH 5.6) to a stock solution at 8 mM. Reduced glutathione (GSH) was dissolved in 0.1 M NaOH and then adjusted to 10 mM using propionate buffer (0.1 M, pH 5.6). For β-hematin inhibitory activity (BHIA) under the reducing condition (R-BHIA), hemin (10 µL) and GSH (10 µL) were distributed in a 96-well plate and homogenized, and the plates were sealed using a thin plastic film and incubated for 1 h at 37°C. Then, 20 µL of the drug was added, and the plates were incubated for 2 h at 37°C. The plastic film was removed after drug incubation, 160 µL propionate buffer (1.0 M, pH 5.6) was added, and plates were incubated for 18 h at 37°C. BHIA under the oxidizing condition (O-BHIA) was prepared in parallel without adding GSH. Controls included wells without drugs and wells containing PBS 1× instead of propionate buffer. Afterward, the plates were centrifuged, the supernatant was discarded, and the pellets of β-hematin crystals were washed twice with pure DMSO and then water. The resulting β-hematin crystals were then dissolved in 200 µL 0.1 M NaOH and diluted to a 1:8 ratio. Aliquots were then transferred into a new plate and read by UV-visible absorbance at […]. Percent of BHIA was calculated in comparison to untreated wells (no drugs), and IC50 was then calculated. Two independent experiments were performed using three replicates of each drug concentration ([46]).
(§2) Figure S6: A summary of IC50 values derived from β-hematin inhibitory activity (BHIA). Footnotes for table: ^[a,b^] Values are mean and 95% confidence interval of one experiment, each concentration in triplicate. ^[a] Using heme (Fe[II]PPIX[Cl]) as a starting reagent. ^[b] Using hematin (Fe[III]PPIX[OH]) as a starting reagent. ^[c] […] CQ = chloroquine. R-BHIA = reducing β-hematin inhibitory activity. O-BHIA = oxidizing β-hematin inhibitory activity.

In data set [6] the test system is heme (iron II)-initiated β-hematin formation. Briefly: β-hematin inhibitory activity under reducing condition (R-BHIA). The data set is classed as biochemical. Particulars: mean (95% CI). The protocol:
as §1, with “For β-hematin inhibitory activity (BHIA) under the reducing condition (R-BHIA), hemin (10 µL) and GSH (10 µL) were distributed in a 96-well plate and homogenized, and the plates were sealed using a thin plastic film and incubated for 1 h at 37°C.” left out
as §2

The subject of a further data set is P. falciparum. Briefly: Parasite growth inhibition (cell potency). The format is cell-based. Particulars: Plasmodium falciparum; strain and exposure not stated at the place.

Read-outs that look alike come from different tables or passages of the source. A value given as a limit tells only on which side of the number the result lay.

As usually defined, the IC50 is the concentration that inhibits the measured activity by half. In the case of `OC(c1cc(C(F)(F)F)nc2c(C(F)(F)F)cccc12)C1CCCCN1` (stereo not drawn) [MFQ, mefloquine, reference compound], the IC50 was determined as 61.6 ± 11.9 nM in [1] (asynchronous parasites, 6 h drug, wash, additional 66 h, read-out: IC50, Asynchronous); 20.2 ± 1.3 nM in [1] (asynchronous parasites, 72 h continuous drug, read-out: IC50, 72 h); 37.2 ± 5.2 nM in [1] (synchronized ring stages, 6 h drug, wash, additional 66 h, read-out: IC50, Ring stages); 17 nM in data set [2] (NF54, ring stages NF54, read-out: IC50, Drugs alone); 37.2 ± 5.2 nM in data set [3] (NF54, 6 h drug pulse, wash, incubated until 72 h, median ± SEM, read-out: IC50, 6 h + 66 h); 10.3 ± 2.6 nM in data set [3] (NF54, 72 h continuous drug, median ± SEM, read-out: IC50, 72 h). Also, the IC50 in data set [3] (NF54, read-out: IC50, 3 h + 69 h, 3 h drug pulse, wash, incubated until 72 h, median ± SEM) was greater than 600 nM.
Consider `CC(C)(N)CNC(=O)C[C@H]1CC[C@]2(CC1)OO[C@]1(O2)C2CC3CC(C2)CC1C3` [OZ277], for which, in [4], the “half-life (t1/2)” value was 2 to 4 h.
Take `C[C@@H]1CC[C@H]2[C@@H](C)C(=O)O[C@@H]3O[C@@]4(C)CC[C@@H]1[C@]32OO4` [ART, artemisinin]: the “In vivo parasitemia reduction (%)” value in the data set with P. berghei-infected mice is 78.5 ± 9.0%. Besides, the figures for the IC50 in the data set with P. falciparum 3D7 strain and in the data set on P. falciparum Dd2 strain were 26.8 ± 2.4 nM and 11.3 ± 1.8 nM, respectively.
With `CCN(CC)CCCC(C)Nc1ccnc2cc(Cl)ccc12` (stereo not drawn) [CQ, chloroquine, reference compound], the IC50 in [5] was 228000 nM; in data set [6] (reductive step 10 minutes, read-out: IC50 (µM) values of R-BHIA using heme (iron II), 10 minutes), 189 µM; in [6] (reductive step 120 minutes, read-out: IC50 (µM) values of R-BHIA using heme (iron II), 120 minutes), 222 µM; in the data set on P. falciparum, 14.5 nM; in the data set with P. falciparum 3D7 strain it was 12.7 ± 2.5 nM; in the data set with P. falciparum Dd2 strain, 165 ± 16 nM. The IC50 in data set [2] (NF54, read-out: IC50, Drugs alone, ring stages NF54) amounted to 10.4 nM.
